Here are results for 15 molecules from patent publication US6440996B1, “Monomeric and dimeric heterocycles, and therapeutic uses thereof” (priority 1998, dated 2002).

Series [1] concerns the target striatal dopamine transporter (Macaca mulatta, UniProt Q7JHP9). As to the kind of experiment: PET evaluation of 11C-labeled isomers. The protocol: The products were purified by HPLC on a C-18 cartridge eluted with MeOH: phosphate/triethylamine buffer, pH 7.2 (60:40).
After passage through a 0.22 μm filter, the sterile products were administered to three Rhesus monkeys and dynamic PET images were acquired over 90 minutes.

Series [2] concerns dopamine transporter. As to conditions: cited from earlier work; for protection from the effect of 10 mM N-ethylmaleimide: 10 μM cocaine, 300 μM dopamine, d-amphetamine.
In series [3] the target is norepinephrine transporter (Rattus norvegicus, UniProt Q9WTR4). The series can be described thus: Norepinephrine transporter binding (NET). The protocol: (§1) Determination of inhibitory binding potencies of analogues at dopamine, serotonin, and norepinephrine transporters are carried out using standard receptor binding assays which are known in the art.
C. Norepinephrine Transporter Binding (NET)
J. Med Chem., 36, 2886-2890.

Series [4] concerns the target T1, dopamine transporter (Rattus norvegicus, UniProt P23977).
T1 construct: from tissue; P2 synaptosomes for uptake
As to the kind of experiment: [3H]WIN 35,428 binding to rat striatal membranes / dopamine transporter binding (DAT). Here is the method: as §1
A. Dopamine Transporter Binding (DAT)

Another series deals with serotonin transporter (Rattus norvegicus, UniProt P31652). As to the kind of experiment: Serotonin transporter binding (5-HTT). The protocol: as §1
B. Serotonin Transporter Binding (5-HTT)
Mol. Pharmacol., 39, 339.

For the next series, the system named is rats. The series can be described thus: Intravenous drug self-administration. Type of series: in vivo. Particulars: for self-administration responding: i.v., FR10, cocaine 1 mg/kg/infusion, analog 2 0.3-3 mg/kg/infusion, analog 3 0.125-0.5 mg/kg infusion, vs saline extinction. An excerpt: J. Neurosci., 16, 7416-7427.
Rats were initially trained to lever press for food pellets in standard operant boxes. Following lever press training, rats were implanted with polyvinyl chloride catheters into femoral veins under halothane anesthesia (2-3% in medical grade oxygen) and were allowed to recover for an additional 7 days before initiation of i.v. drug self-administration testing. During drug self-administration sessions, food pellets were no longer delivered, and instead intravenous injections of drugs were delivered by way of the catheter.
Following this second extinction test, self-administration of piperidine analog 2 was studied at doses of 1, 3, and 0.3 mg/kg/infusion in that order. Each dose was tested for five days. During all the re-acquisition test days, a priming infusion was given at the start of the session on each day.

A short description of series [5]: Drug discrimination, substitution for amphetamine. The format is in vivo. As to conditions: for response rates across test doses: amphetamine discrimination.
In another series the test system is Sprague-Dawley rats. As to the kind of experiment: Locomotor activity (distance traveled, stereotypic behavior). The format is in vivo.
Series [6] in a line: Drug discrimination, substitution for cocaine and co-administration with cocaine. The format is in vivo.
The target of series [7] is T1, dopamine transporter. The series can be described thus: Inhibition of high-affinity [3H]dopamine uptake into rat striatal nerve endings (synaptosomes). Type of series: biochemical. Here is the method:
A. [^3H]Dopamine Uptake Studies
The effect of candidate compounds in antagonizing dopamine high-affinity uptake was determined using a method previously employed. For [^3H]DA uptake, dissected rat striata were homogenized with a Teflon-glass pestle in ice-cold 0.32 M sucrose and centrifuged for 10 min at 1000×g. The supernatant was centrifuged at 17,500×g for 20 min. This P2 synaptosomal pellet was resuspended in 30 volumes of ice-cold modified KRH buffer. An aliquot of the synaptosomal suspension was preincubated with the buffer and drug for 30 min at 37° C., and uptake initiated by the addition of [^3H]dopamine (5 nM, final concentration). After 5 min, uptake was terminated by adding 5 mL of cold buffer containing glucosamine as a substitute for NaCl and then finally by rapid vacuum filtration over GF-C glass fiber filters, followed by washing with two 5 mL volumes of ice-cold, sodium-free buffer. Radioactivity retained on the filters was determined by liquid scintillation spectrometry. […] It is identical to that calculated by subtracting the mean of identical tubes incubated at 0° C.

Where [8] appears, read: Table 2, read-out: DAT IC50 (nm).
[9] abbreviates: rat striatal membranes, Table 1, read-out: IC50 (nM) [3H]WIN 35,428 binding.
Where [10] appears, read: Table 2, unit inferred, read-out: Dopamine Uptake.
Setting [11] is: rat striatal synaptosomes, Table 1, read-out: IC50 (nM) [3H]dopamine uptake.

Where two headings read alike, the source gives them in different places.

As a reminder, the melting point is the temperature, or range, at which the solid turns liquid.

Chain of serotonin transporter (P31652 whole entry): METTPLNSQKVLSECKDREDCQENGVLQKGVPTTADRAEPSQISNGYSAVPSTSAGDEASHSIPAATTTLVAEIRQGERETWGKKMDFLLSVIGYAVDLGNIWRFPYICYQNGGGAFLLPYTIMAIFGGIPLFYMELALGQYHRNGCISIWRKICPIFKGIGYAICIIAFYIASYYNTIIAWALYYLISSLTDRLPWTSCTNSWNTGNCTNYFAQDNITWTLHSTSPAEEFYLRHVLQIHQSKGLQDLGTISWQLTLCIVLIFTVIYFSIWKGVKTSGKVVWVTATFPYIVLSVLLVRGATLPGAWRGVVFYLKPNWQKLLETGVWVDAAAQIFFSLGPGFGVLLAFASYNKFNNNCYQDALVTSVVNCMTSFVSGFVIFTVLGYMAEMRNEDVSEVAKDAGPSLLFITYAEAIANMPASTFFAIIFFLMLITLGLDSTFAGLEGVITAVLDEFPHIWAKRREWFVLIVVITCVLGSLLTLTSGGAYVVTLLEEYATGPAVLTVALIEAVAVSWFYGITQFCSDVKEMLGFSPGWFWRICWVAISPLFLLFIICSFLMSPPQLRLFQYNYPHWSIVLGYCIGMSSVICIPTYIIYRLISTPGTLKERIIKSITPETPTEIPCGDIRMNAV
T1 sequence (P23977 whole entry): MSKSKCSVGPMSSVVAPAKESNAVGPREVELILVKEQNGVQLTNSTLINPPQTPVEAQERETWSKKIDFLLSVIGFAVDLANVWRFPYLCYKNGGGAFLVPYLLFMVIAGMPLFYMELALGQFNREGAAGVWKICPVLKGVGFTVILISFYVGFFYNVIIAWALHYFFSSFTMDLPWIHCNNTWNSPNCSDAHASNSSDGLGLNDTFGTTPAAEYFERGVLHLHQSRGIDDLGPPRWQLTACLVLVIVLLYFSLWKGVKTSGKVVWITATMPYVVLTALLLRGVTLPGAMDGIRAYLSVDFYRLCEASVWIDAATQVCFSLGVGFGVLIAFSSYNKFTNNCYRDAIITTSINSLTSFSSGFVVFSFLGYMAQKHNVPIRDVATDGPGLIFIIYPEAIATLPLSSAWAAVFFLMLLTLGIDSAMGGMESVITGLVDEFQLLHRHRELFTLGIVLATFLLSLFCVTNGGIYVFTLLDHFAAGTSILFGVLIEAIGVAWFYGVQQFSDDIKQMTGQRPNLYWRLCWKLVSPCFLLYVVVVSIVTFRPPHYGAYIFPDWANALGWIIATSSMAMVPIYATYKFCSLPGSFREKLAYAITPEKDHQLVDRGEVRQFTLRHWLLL
Chain of norepinephrine transporter (Q9WTR4 1-597): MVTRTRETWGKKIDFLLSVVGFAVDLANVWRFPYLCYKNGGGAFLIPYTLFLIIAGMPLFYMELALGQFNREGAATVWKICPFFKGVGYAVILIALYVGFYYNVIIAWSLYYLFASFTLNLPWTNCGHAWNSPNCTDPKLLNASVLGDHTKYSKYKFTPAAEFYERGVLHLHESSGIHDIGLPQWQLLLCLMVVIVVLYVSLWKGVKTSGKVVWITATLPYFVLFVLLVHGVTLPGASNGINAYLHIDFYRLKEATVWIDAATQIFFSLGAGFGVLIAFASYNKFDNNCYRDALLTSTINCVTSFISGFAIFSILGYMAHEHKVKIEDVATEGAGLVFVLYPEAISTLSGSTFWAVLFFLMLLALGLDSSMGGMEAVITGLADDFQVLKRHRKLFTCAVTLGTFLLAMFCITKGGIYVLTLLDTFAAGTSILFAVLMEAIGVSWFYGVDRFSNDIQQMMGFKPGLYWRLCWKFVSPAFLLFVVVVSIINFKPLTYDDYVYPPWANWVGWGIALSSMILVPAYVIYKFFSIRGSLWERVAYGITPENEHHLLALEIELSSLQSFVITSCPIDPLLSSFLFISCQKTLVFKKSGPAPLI
Chain of striatal dopamine transporter (Q7JHP9 1-620): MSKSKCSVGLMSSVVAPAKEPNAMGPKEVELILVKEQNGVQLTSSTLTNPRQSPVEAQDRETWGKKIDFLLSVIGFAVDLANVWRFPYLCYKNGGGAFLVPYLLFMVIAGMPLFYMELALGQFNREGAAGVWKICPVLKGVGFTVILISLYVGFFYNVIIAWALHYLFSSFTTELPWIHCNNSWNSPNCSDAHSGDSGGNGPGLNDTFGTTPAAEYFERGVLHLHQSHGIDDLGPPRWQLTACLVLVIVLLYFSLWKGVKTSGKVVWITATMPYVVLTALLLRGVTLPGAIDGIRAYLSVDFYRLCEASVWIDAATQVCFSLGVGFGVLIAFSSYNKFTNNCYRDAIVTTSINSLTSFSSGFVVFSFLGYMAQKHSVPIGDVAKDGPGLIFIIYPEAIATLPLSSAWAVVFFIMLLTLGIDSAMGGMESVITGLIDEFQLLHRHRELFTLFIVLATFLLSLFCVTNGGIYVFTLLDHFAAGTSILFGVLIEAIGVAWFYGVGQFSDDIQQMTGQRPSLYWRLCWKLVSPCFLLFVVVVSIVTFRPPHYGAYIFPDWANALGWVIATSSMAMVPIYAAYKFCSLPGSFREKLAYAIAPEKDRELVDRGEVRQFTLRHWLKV

On to `COC(=O)C1CN(C)CCC1c1ccc(Cl)cc1` (single isomer, unassigned; isomer 4) [cis isomer, 4-(4-chlorophenyl)-3-carbomethoxy-N-methylpiperidine], for which the “brain accumulation of 11C-labeled tracer (PET)” value in series [1] (dynamic PET over 90 minutes) is given as “greater nonspecific accumulation in the cortex”.

For the molecule `COC(=O)C1CN(C)CCC1c1ccc(Cl)cc1` (stereo not drawn) [trans isomers, 4-(4-chlorophenyl)-3-carbomethoxy-N-methylpiperidine], in series [1] (CFT given 60 minutes after injection), the “striatal activity after unlabeled CFT” value was “selective decrease in the striatal activity”.

Take `NCCc1ccc(O)c(O)c1` [dopamine]: the “protection from the effect of 10 mM N-ethylmaleimide” value in the series on dopamine transporter [2] was “neither 300 μM dopamine nor d-amphetamine afforded any significant protection”.

On to `COC(=O)C1CN(CCCc2ccccc2)CCC1c1ccc(Cl)cc1` (single isomer, unassigned; (-)) [Compound 48, (−)-Methyl 4β-(4-Chlorophenyl)-1-(3-phenylpropyl)-piperidine-3β-carboxylate], for which the melting point was 73 to 75 °C. The IC50 in series [3] came to 1150 nM. The same molecule yielded an IC50 on dopamine transporter [4] (DAT IC50 (nm), Table 2) of 157 nM. Moreover, the IC50 on serotonin transporter was 73200 nM.

As to `COC(=O)C1CN(C)CCC1c1cccc2ccccc12` (racemic) [Compound 73, (±)-Methyl 4β-(1-Naphthyl)-1-methylpiperidine-3β-carboxylate], the melting point was 108 to 109 °C. The IC50 in series [3] (Table 2, read-out: NET IC50 (nm)) is 2700 nM. Further, the IC50 on dopamine transporter [4] (setting [8]) was determined as 173 nM. This molecule also registered an IC50 on serotonin transporter (5-HTT IC50 (nm), Table 2) of 1310 nM.

In turn, `COC(=O)[C@@H]1CN(C)CC[C@@H]1c1ccc2ccccc2c1` (racemic) [Compound 74, (±)-Methyl 4β-(2-Naphthyl)-1-methylpiperidine-3β-carboxylate] gave a melting point of 100 to 101 °C. The same molecule showed an IC50 in series [3] of 2570 nM. On dopamine transporter [4] (DAT IC50 (nm), Table 2), this molecule yielded an IC50 of 13 nM. The molecule further gave an IC50 on serotonin transporter (5-HTT IC50 (nm), Table 2) of 107 nM.

Regarding `COC(=O)[C@@H]1CN(C)CC[C@H]1c1ccc(Cl)cc1` (racemic) [Compound 2, (±)-trans-Methyl 4-(4-Chlorophenyl)-1-methylpiperidine-3-carboxylate], the “number of infusions delivered vs saline extinction test” value with rats (analog 2, all doses tested) was “not significantly different”. Also, in the series on rats, the self-administration responding result is reported as “failed to restore”. Also, the IC50 on dopamine transporter [4] (DAT IC50 (nm), Table 2) amounted to 196 nM; at dopamine transporter [4] (IC50 (nM) [3H]WIN 35,428 binding, rat striatal membranes, Table 1), 197 ± 7.9 nM. Besides, the “response rates across test doses” value in series [5] was “remained fairly stable”. For the same molecule, the maximum amphetamine-lever responding in series [5] (substitution tests) was 53%. Further, the “time course of stereotypic response” value with Sprague-Dawley rats (90 minutes following the drug injection) is “persistent at 90 minutes”. Besides, the distance traveled result in the series with Sprague-Dawley rats (i.p., cocaine 10 mg/kg, analog 2 3-20 mg/kg, vs saline control) is on record as “did not alter”. Moreover, the “stereotypic behavior / stereotypic time” value in the series on Sprague-Dawley rats (i.p., cocaine 10 mg/kg, analog 2 10 and 20 mg/kg) is “small, statistically nonsignificant increase”. For the same molecule, the “drug choice and response rate performance on co-administration with cocaine” value in series [6] (analog 2 10 mg/kg plus cocaine 1.25 and 5 mg/kg, vs cocaine alone) is “did not significantly alter”. Further, the “response rates compared with cocaine (10 mg/kg)” value in series [6] (analog 2 5 and 10 mg/kg) is “substantially lower”. Moreover, the maximum cocaine-lever responding in series [6] (analog 2 5 and 20 mg/kg) is 40%.

In the case of `CC(N)Cc1ccccc1` (centres unmarked) [amphetamine, reference compound], in series [5], the “response rates across test doses” value is given as “remained fairly stable”. The “substitution for the discriminative stimulus effects of amphetamine” value in [5] (substitution tests) was “dose-dependent and complete substitution”.

On to `COC(=O)[C@@H]1CN(C)CC[C@@H]1c1ccc(Cl)cc1` [Compound 3, (−)-Methyl 4β-(4-Chlorophenyl)-1-methylpiperidine-3β-carboxylate], for which the IC50 stood at 1630 nM in [3]; 25 nM at dopamine transporter [4] (setting [8]); 24.8 ± 1.6 nM at dopamine transporter [4] (setting [9]); 85 nM on dopamine transporter [7] (setting [10]); 85.2 ± 2.6 nM on dopamine transporter [7] (setting [11]). In addition, the self-administration responding result with rats is recorded as “reliably self-administered”.

Consider `CC(=O)OC[C@@H]1CN(C)CC[C@@H]1c1ccc(Cl)cc1` [Compound 7, (−)-3β-(Acetoxymethyl)-4β-(4-chlorophenyl)-1-methylpiperidine], for which the melting point worked out at 76 °C. For the same molecule, the IC50 in [3] worked out at 233 nM. Also, the IC50 at dopamine transporter [4] (DAT IC50 (nm), Table 2) worked out at 10 nM. In addition, on dopamine transporter [4] (setting [9]), the IC50 amounted to 44.7 ± 10.5 nM. Also, the IC50 at dopamine transporter [7] (setting [10]) was 63 nM. Also, the IC50 on dopamine transporter [7] (setting [11]) was found to be 62.9 ± 2.7 nM.

`COC(=O)C1CN(C)CCC1c1ccc(Br)cc1` (single isomer, unassigned; (+)) [Compound 69, (+)-Methyl 4β-(4-Bromophenyl)-1-methylpiperidine-3β-carboxylate] had a melting point of 125 to 126 °C. The IC50 in series [3] came out at 21600 nM. At dopamine transporter [4] (DAT IC50 (nm), Table 2), this molecule had an IC50 of 406 nM. Besides, on serotonin transporter (5-HTT IC50 (nm), Table 2), the IC50 turned out to be 4130 nM.

Turning to `COC(=O)C1CN(C)CCC1c1ccc(Br)cc1` (single isomer, unassigned; (-)) [Compound 63, (−)-Methyl 4β-(4-Bromophenyl)-1-methylpiperidine-3β-carboxylate], the melting point was in the range of 121 to 122 °C. The IC50 at dopamine transporter [4] (DAT IC50 (nm), Table 2) came out at 3 nM. Also, the IC50 at serotonin transporter (5-HTT IC50 (nm), Table 2) was determined as 1100 nM.

With `CCN1C(=O)C=CC1=O` [N-Ethyhmaleimide], the “inhibition of the specific binding of [3H]mazindol” value with dopamine transporter [2] (background) is on record as “about 95%”.

On to `C[C@H](N)Cc1ccccc1` [d-amphetamine], for which the “protection from the effect of 10 mM N-ethylmaleimide” value in the series on dopamine transporter [2] was “neither 300 μM dopamine nor d-amphetamine afforded any significant protection”.

Turning to `C=Cc1ccc(C2CCN(C)CC2C(=O)OC)cc1` (single isomer, unassigned; (-)) [Compound 64, (−)-Methyl 4β-(4-Vinylphenyl)-1-methylpiperidine-3β-carboxylate], the melting point is 68 to 69 °C. The molecule also gave an IC50 in [3] of 65800 nM. For the same molecule, the IC50 at serotonin transporter (5-HTT IC50 (nm), Table 2) is 13200 nM.
